# PubChem BioAssay (NCI)
# Several values for one entry are separate records, joined by “and”; a condition that tells them apart may be missing. Equal entries are not always repeated.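 Results reflect a 48-hour exposure of cells in 96-well plates to compound at five concentrations. GI50: concentration for 50% inhibition of growth. TGI is the concentration that stops growth completely.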
# Legend:
# Assay in all cases: growth of human tumour cells (NCI), 48 h
# SK-MEL-5 melanoma = test system: SK-MEL-5 melanoma
# MALME-3M melanoma = test system: MALME-3M melanoma
# NCI-H23 lung = test system: NCI-H23 lung
# HS 578T breast = test system: HS 578T breast
# 786-0 renal = test system: 786-0 renal
# A498 renal = test system: A498 renal
# RXF 393 renal = test system: RXF 393 renal
# CAKI-1 renal = test system: CAKI-1 renal
SMILES,GI50 (SK-MEL-5 melanoma),TGI (SK-MEL-5 melanoma) [µM],GI50 (MALME-3M melanoma),TGI (MALME-3M melanoma),GI50 (NCI-H23 lung) [µM],TGI (NCI-H23 lung),GI50 (HS 578T breast) [µM],TGI (HS 578T breast),GI50 (786-0 renal),TGI (786-0 renal),GI50 (A498 renal),TGI (A498 renal),GI50 (RXF 393 renal) [µM],TGI (RXF 393 renal),GI50 (CAKI-1 renal),TGI (CAKI-1 renal)
COc1cc2nc(SCc3cc(OC)c(OC)c(OC)c3)n(Cc3ccccc3)c(=O)c2cc1OC,0.454 µM,2.63,2.83 µM,27 µM,6.58,> 100 µM,2.09,21.3 µM,5.34 µM,27.3 µM,1.62 µM,7.87 µM,1.02,10.8 µM,3.86 µM,> 100 µM
COc1cc2c(c(OC)c1OC)-c1ncc3c(OC)c(OC)c(OC)cc3c1C2,16 µM,30.5,,,,,29.9,67.3 µM,36.5 µM,> 100 µM,,,25.2,83.2 µM,23.9 µM,83.5 µM
CC[n+]1oc(C(=O)c2ccc(Cl)cc2)c(-c2ccccc2)c1-c1ccccc1.[Cl][Fe]([Cl])([Cl])[Cl],19.5 µM,45.8,39.7 µM,> 100 µM,45.7,> 100 µM,34.5,> 100 µM,91.8 µM,> 100 µM,22.2 µM,75.1 µM,,,,
CCCCCCCCCCCCCCCCCC1=NC(C)(C)CN1CC(C)O (stereo unspecified),17.4 µM,32,17.1 µM,34.4 µM,12.7,27.1 µM,14,34.2 µM,14.9 µM,31.7 µM,15.3 µM,32.2 µM,14.2,31.9 µM,14.4 µM,29.4 µM
CCOC(=O)Nc1nc2ccc(OC)cc2s1,> 100 µM,> 100,> 100 µM,> 100 µM,> 100,> 100 µM,> 100,> 100 µM,> 100 µM,> 100 µM,,,> 100,> 100 µM,> 100 µM,> 100 µM
O=c1c2cc(F)ccc2sc2c(N3CCNCC3)nc3ccc(F)cc3c12,1.73 µM,3.11,1.59 µM,3.06 µM,1.67,3.17 µM,1.7,3.6 µM,1.49 µM,2.98 µM,1.67 µM,3.09 µM,1.33,2.71 µM,1.57 µM,2.92 µM
CC1=C(C(=O)CC(=O)C(=O)Nc2cc(C)ccc2C)Sc2ccccc2N1,,> 100,,> 100 µM,,> 100 µM,,,,> 100 µM,,,,> 100 µM,,> 100 µM
Cc1[nH]nc(C(F)(F)F)c1N=NN(C)C,,> 100,,38.3 µM,,21.9 µM,,44.6 µM,,3.09 µM,,> 100 µM,,26.5 µM,,3.56 µM
CS(=O)(=O)CCNCc1cc(-c2cc3c(Nc4ccc(OCc5cccc(F)c5)c(Cl)c4)ncnc3s2)cs1,7.09 µM,> 25,19.1 µM,> 25 µM,20.5,> 25 µM,4.67,> 17.6 µM,6.44 µM,> 18.7 µM,2.27 µM,> 25 µM,2.27,11.8 µM,4.79 µM,> 25 µM
COc1cccc(/C(C#N)=C/c2nc3c(N4CCOCC4)nc(Cl)nc3n2C)c1,1.73 µM,3.14,1.57 µM,2.97 µM,1.52,3.19 µM,1.59,5.88 µM,1.59 µM,3.05 µM,1.49 µM,2.91 µM,1.02,2.23 µM,0.621 µM,1.99 µM
COc1cc(OC)c(C(=O)/C=C/c2cc3c(cc2OCc2ccccc2)OC(C)(C)CC3)cc1CC=C(C)C,3.33 µM,6.53,4.89 µM,12.6 µM,6.77,> 25 µM,3.05,16.7 µM,9.33 µM,> 25 µM,5.42 µM,21.8 µM,5.91,17.1 µM,6.74 µM,16.9 µM
COc1ccc(S(=O)(=O)N2CCN(C(=O)c3ccc(-c4ccccc4)cc3)CC2C(=O)NO)cc1 (stereo unspecified),,,2.25 µM and 17.3 µM,,,12.5 µM and > 100 µM,,,,12.4 µM and > 100 µM,,,,,2.99 µM and 21.9 µM,12.5 µM and > 100 µM
CC1CCC2(NC1)OC1CC3C4CC=C5CC(O)CCC5(C)C4CCC3(C)C1C2C (stereo unspecified),59 µM and 27.3 µM,> 100,34.1 µM and 13.5 µM,> 100 µM and 34.3 µM,,> 100 µM,,> 100 µM and 37 µM,14.5 µM and 3.24 µM,30.1 µM and 11.9 µM,18.7 µM and 5.56 µM,38.5 µM and 14.5 µM,,60.2 µM and 39.9 µM,25.5 µM and 11.2 µM,71.6 µM and 33 µM
[C](#Cc1ccccc1)[Hg][C]#Cc1ccccc1,53.3 µM,> 100,27.9 µM,54.7 µM,37.8,> 100 µM,> 100,> 100 µM,30.6 µM,> 100 µM,> 100 µM,> 100 µM,16.5,34.9 µM,20 µM,41.7 µM
Cc1nc(-c2ccccc2)n2nc(NCCCN3CCOCC3)ncc12,> 16.7 µM,> 25,> 17.9 µM,> 25 µM,> 25,> 25 µM,12.2,> 25 µM,> 25 µM,> 25 µM,6.5 µM,> 25 µM,6.75,> 25 µM,6.86 µM,> 25 µM
COC(=O)c1cc2c3ccccc3n3c(=O)c4cc5ccc(N(S(=O)(=O)c6ccc(C)cc6)S(=O)(=O)c6ccc(C)cc6)cc5nc4c(n1)c23,> 100 µM,> 100,69.7 µM,> 100 µM,36.6,> 100 µM,29.3,> 100 µM,13.6 µM,43.9 µM,34.8 µM,70.2 µM,13.1,37.8 µM,> 100 µM,> 100 µM
CCC1CC2C(=O)N(c3ccccc3)C(=O)C2c2[nH]c3ccccc3c21 (stereo unspecified),,> 100,,38.7 µM,,> 100 µM,,,,47.6 µM,,67.7 µM,,59.6 µM,,
O=C(/C=C/c1ccccc1)C(Br)C(Br)c1ccccc1 (stereo unspecified),,,,,,,2.36,7.7 µM,1.91 µM,4.31 µM,1.9 µM,5.68 µM,1.52,3 µM,1.24 µM,2.6 µM
CCC(O)c1ccc(Br)cc1NC(=O)c1cccc(Cl)c1 (stereo unspecified),14.5 µM,28.2,36.6 µM,> 100 µM,22.4,86.6 µM,24.6,> 100 µM,33.1 µM,> 100 µM,16.3 µM,54 µM,,,10.2 µM,51.4 µM
Cn1c(-c2c(N)n(Nc3cccc(Cl)c3)c3nc(C#N)c(C#N)nc23)nc2ccccc21,7.41 µM,16.6,,,2.88,13.2 µM,7.26,30.1 µM,8.91 µM,37.3 µM,6.56 µM,16.6 µM,0.0138,3.54 µM,7.29 µM,43.2 µM
O=C(O)c1ccc(NCn2nc(-c3ccccc3O)oc2=S)cc1,> 100 µM,> 100,,,50.7,> 100 µM,> 100,> 100 µM,39.7 µM,> 100 µM,,,67.9,> 100 µM,> 100 µM,> 100 µM
COc1ccc(-c2cs/c(=N\N=C\c3ccc(O)cc3O)n2/N=C/c2ccc(O)cc2O)cc1,1.69 µM,3.07,2.2 µM,4.79 µM,1.95,4.64 µM,2.7,7.36 µM,2.16 µM,4.93 µM,1.75 µM,3.81 µM,,,,
CCCCCCCCOC(=O)CC[C@@H](C)[C@H]1CC[C@H]2[C@@H]3[C@H](OC(=O)CCN)C[C@@H]4C[C@H](OC(=O)CCN)CC[C@]4(C)[C@H]3C[C@H](OC(=O)CCN)[C@]12C,19.4 µM,51.7,2.58 µM,5.86 µM,10,29.9 µM,,,15 µM,37.1 µM,23.8 µM,48.1 µM,9.66,29 µM,18 µM,34.6 µM
CCOC(=O)C(Cc1c[nH]c2c(N(CCO)CCO)cccc12)(NC(C)=O)C(=O)OCC,323 µM,> 1000,202 µM,> 1000 µM,> 1000,> 1000 µM,302,> 1000 µM,> 1000 µM,> 1000 µM,,,> 1000,> 1000 µM,,
COc1ccc(NC(=O)CSC2=C(Nc3cccc(Br)c3)C(=O)N(Cc3ccccc3)C2=O)cc1Cl,16.8 µM,> 100,,,,,35.4,> 100 µM,> 100 µM,> 100 µM,,,> 100,> 100 µM,> 100 µM,> 100 µM
